From patent publication US8288380B2, “Thiophenediamine derivative having urea structure” (Santen Pharmaceutical Co., Ltd., priority 2008, dated 2012)

What was measured:
[1] = tested on: male Japanese White rabbits; experiment: Test for evaluation of intraocular pressure-lowering effect (intracameral administration); format: in vivo, rabbit; details: intracameral administration of 20 μL of 1 mM liquid, at 9 hours after administering, versus vehicle control group
Text: Further, as a result of studying an effect of intraocular pressure reduction of the present compound through intracameral administration using male Japanese white rabbits in order to confirm an actual effect of intraocular pressure reduction of the present compound, it was confirmed that the present compound has an effect of intraocular pressure reduction. […]
One drop of 0.4% oxybuprocaine hydrochloride eye drop was instilled into both eyes of each male Japanese White rabbit to achieve local anesthesia, and thereafter, the intraocular pressure was measured using an applanation tonometer. […] After the lapse of a certain period of time from the administration of the test compound or vehicle, one drop of 0.4% oxybuprocaine hydrochloride eye drop was instilled into the administered eye to achieve local anesthesia, and thereafter, the intraocular pressure was measured using an applanation tonometer.
The intraocular pressure-lowering effect of each test compound was evaluated by calculating an intraocular pressure reduction rate. The intraocular pressure reduction rate (%) was calculated using the following equation. […]

[2] = tested on: human trabecular meshwork cell line (TM-1 cells); experiment: Test for evaluation of effect of morphological change on trabecular meshwork cells (cell shape index, CSI); format: cell-based; details: final concentration 10 μM, 24 hours incubation, Control 0.694, lower CSI indicates greater morphological changes
Text: Further, as a result of studying an effect morphological change of the present compound on trabecular meshwork cells, i.e., an effect of morphological change of the present compound on trabecular meshwork cells in an evaluation system using the cell shape index (hereinafter referred to as “CSI”) reported in The Journal of Clinical Investigation, 103, 1141-1150 (1999) as an index, it was found the present compound has an excellent effect of morphological change on trabecular meshwork cells.
As a method for evaluating a cellular morphological change, an evaluation system using the cell shape index (hereinafter referred to as “CSI”) as an index has been reported in The Journal of Clinical Investigation, 103, 1141-1150 (1999). Therefore, according to the method described in the above document, an effect of morphological change of the present compounds on trabecular meshwork cells was evaluated.
A human trabecular meshwork cell line (hereinafter referred to as “TM-1 cells”) reported in Investigative Ophthalmology & Visual Science, 43, 151-161 (2002) was used.
Culture medium 1: A reagent was prepared by adding fetal bovine serum (10%), L-glutamine (2 mM), amphotericin B ([…]), and gentamicin (25 μg/mL) to Dulbecco's Modified Eagle Medium (hereinafter referred to as “D-MEM”).
Culture medium 2: A reagent was prepared by adding fetal bovine serum (3%), L-glutamine (2 mM), amphotericin B (2.5 μg/mL), and gentamicin (25 μg/mL) were added to D-MEM.
Cell staining liquid: A mixed liquid of Calcein-AM (16 μM) and Hoechst 33342 (40 μM) was prepared by diluting a Calcein-AM solution (cytoplasmic staining reagent, manufactured by Dojindo Laboratories) and a Hoechst 33342 solution (nuclear staining reagent, manufactured by Dojindo Laboratories) with D-MEM containing L-glutamine (2 mM), amphotericin B (2.5 μg/mL), and gentamicin (25 μg/mL).
TM-1 cells subcultured at 37° C. in a 8% carbon dioxide gas atmosphere were treated with a trypsin/EDTA solution (0.05% trypsin and 0.53 mM tetrasodium ethylenediaminetetraacetate) at 24 hours before performing a drug treatment mentioned below and seeded on a 96-well culture plate. The culture medium 1 was used for the subculture of the cells. The culture medium 2 was used for the cell culture after seeding the cells on the plate.
A test compound was dissolved in DMSO, whereby a 5 mM solution was prepared. Then, the resulting solution was diluted with the culture medium 2, whereby a 200 μM test compound solution was prepared.
It has been reported that Y-27632 which is a Rho kinase inhibitor induces a morphological change in trabecular meshwork cells in Investigative Ophthalmology & Visual Science, 42, 137-144 (2001). Therefore, Y-27632 (produced according to the method described in WO 90/05723) was used as a positive control, and dissolved in DMSO in the same manner as the test compound, whereby a 5 mM solution was prepared, and then, the resulting solution was diluted with the culture medium 2, whereby a 200 μM positive control compound solution was prepared.
1) To a 96-well culture plate, a solution of TM-1 cells adjusted to a cell density of […] was added in an amount of 95 μL (1.5×10^4 cells) per well.
2) Incubation was performed at 37° C. in a 8% carbon dioxide gas atmosphere for 24 hours.
3) The test compound solution or positive control compound solution was added in an amount of 5 μL per well (the final concentration of the test compound or positive control compound was 10 μM). As a control, the culture medium 2 containing DMSO (4%) was added in an amount of 5 μL per well.
4) Incubation was performed at 37° C. in a 8% carbon dioxide gas atmosphere for 24 hours.
5) The cell staining liquid was added in an amount of 10 μL per well.
6) Incubation was performed at 37° C. in a 8% carbon dioxide gas atmosphere for 1 hour to stain the cells.
7) A 37% formaldehyde solution was added in an amount of 10 μL per well.
8) Incubation was performed at room temperature for 1 hour to fix the cells. […]

[3] = tested on: HDAC (HeLa nuclear extract); experiment: Test for evaluation of HDAC inhibitory activity (HDAC Fluorimetric Assay/Drug Discovery Kit, Biomol); format: biochemical; details: final concentration of the test compound 30 μM, values more than 100% shown as 100%
Protocol: Using HDAC Fluorimetric Assay/Drug Discovery Kit (manufactured by Biomol), HDAC inhibitory activity of the present compounds was measured according to the protocol included with the kit. The kit contains Buffer, HeLa nuclear extract (includes HDAC), Substrate, Developer and Trichostatin A HDAC inhibitor).
A test compound was dissolved in dimethyl sulfoxide (hereinafter referred to as “DMSO”), whereby a 2 mg/mL solution was prepared. Then, the resulting solution was diluted with Buffer containing 5% DMSO, whereby a 150 μM test compound solution was prepared.
1) To a 384-well culture plate, the test compound solution was added in an amount of 2 μL per well.
2) HeLa nuclear extract was diluted 30-fold with Buffer. The resulting solution was added in an amount of 3 μL per well, and then incubation was performed at 37° C. for 2 hours.
3) Substrate was diluted 500-fold with Buffer. The resulting solution was added in an amount of 5 μL per well (the final concentration of the test compound was 30 μM), and then incubation was performed at 37° C. for 10 minutes.
4) Developer was diluted 20-fold with Buffer and Trichostatin A (2 μM) was added to it. The resulting solution was added in an amount of 10 μL per well, and then incubation was performed at room temperature for 15 minutes.
5) The fluorescence intensity of each well was measured using multilabel counter ARVO (manufactured by Wallac) with excitation at 360 nm and emission at 460 nm.
6) A control data was obtained from the same experiment except that Buffer containing 5% DMSO was added instead of the test compound solution as the above-mentioned procedure from 1) to 5).
7) A blank data was obtained from the same experiment except that Buffer containing 5% DMSO was added instead of the test compound solution and that Buffer was added instead of Hela nuclear extract as the above-mentioned procedure from 1) to 5).
Enzyme inhibitory rate (%) was calculated using the following equation. (Enzyme Inhibitory Rate(%))=100×[1−{(Fluorescence Intensity of Test Compound Solution)−(Florescence Intensity of Blank)}/{(Florescence Intensity of Control)−(Florescence Intensity of Blank)}] (Test Results)

| Compound | Intraocular Pressure Reduction Rate (%) [1] [%] | CSI [2] | Enzyme Inhibitory Rate (%) [3] [%] |
| --- | --- | --- | --- |
| CC(C)NC(=O)N(CCN(C)C)Cc1ccc(C(=O)Nc2cscc2N)nc1 [Compound No. 1-43, N-(4-Aminothiophen-3-yl)-5-[1-(2-dimethylaminoethyl)-3-isopropylureidomethyl]pyridine-2-carboxylic acid amide] | 7 | 0.522 | 100 |
| CCCNC(=O)N(CCCCN1CCOCC1)Cc1ccc(C(=O)Nc2cscc2N)nc1 [Compound No. 1-82, N-(4-Aminothiophen-3-yl)-5-[1-[4-(morpholin-4-yl)butyl]-3-propylureidomethyl]pyridine-2-carboxylic acid amide] | 25 | 0.507 | 96 |
| CN(C)CCN(Cc1ccc(C(=O)Nc2cscc2N)nc1)C(=O)Nc1ccc(F)c(F)c1 [Compound No. 1-18, N-(4-Aminothiophen-3-yl)-5-[3-(3,4-difluorophenyl)-1-(2-dimethylaminoethyl)ureidomethyl]pyridine-2-carboxylic acid amide] |  | 0.519 | 97 |
| CN(C)CCN(Cc1ccc(C(=O)Nc2cscc2N)nc1)C(=O)Nc1ccsc1 [Compound No. 1-7, N-(4-Aminothiophen-3-yl)-5-[1-(2-dimethylaminoethyl)-3-(thiophen-3-yl)ureidomethyl]pyridine-2-carboxylic acid amide] |  | 0.523 | 100 |
